According to PubChem BioAssay AID212 (DTP/NCI, 2004):
Where “and” joins values, the source holds several entries; their conditions need not be identical. Identical values can stand only once. Inconclusive results are not listed.

Tested on: BDF1 mice, colon carcinoma 38 sc, T/C %
Assay: NCI In Vivo Anticancer Drug Screen. Data for tumor model Colon Carcinoma 38 (subcutaneous) in B6D2F1 (BDF1) mice
Conditions: endpoint: median tumor weight (est.), higher = larger tumour
Method: The antitumor activity of compounds was measured in mice bearing transplantable tumors. Survival or tumor size were measured and the results are expressed as the measurement made in the treated group (T) divided by the measurement made in the vehicle treated control group (C). The tumor model used in this assay is Colon Carcinoma 38 (subcutaneous) in B6D2F1 (BDF1) mice

[1] = dose: 25.0 mg/kg/injection, schedule: Q07DX002 (ip), vehicle: saline
[2] = dose: 50.0 mg/kg/injection, schedule: Q07DX002 (ip), vehicle: saline
[3] = dose: 100.0 mg/kg/injection, schedule: Q07DX002 (ip), vehicle: saline

Compound: O=c1oc2c(O)c(O)cc3c(=O)oc4c(O)c(O)cc1c4c23
- T/C (dose: 12.5 mg/kg/injection, schedule: Q07DX002 (ip), vehicle: Klucel (hydroxypropylcellulose) (HPC)): 195 % of control
- T/C (dose: 25.0 mg/kg/injection, schedule: Q07DX002 (ip), vehicle: Klucel (hydroxypropylcellulose) (HPC)): 200 % of control
- T/C (dose: 50.0 mg/kg/injection, schedule: Q07DX002 (ip), vehicle: Klucel (hydroxypropylcellulose) (HPC)): 181 % of control
- T/C (dose: 400.0 mg/kg/injection, schedule: Q07DX002 (ip), vehicle: Klucel (hydroxypropylcellulose) (HPC)): 155 % of control

Compound: CCCCCCCC(=O)OCC(=O)[C@]1(O)Cc2c(O)c3c(c(O)c2[C@@H](OC2CC(N)C(O)C(C)O2)C1)C(=O)c1c(OC)cccc1C3=O (stereo not given in full)
- T/C (dose: 2.0 mg/kg/injection, schedule: Q07DX002 (ip), vehicle: suspension in saline): 75 % of control
- T/C (dose: 4.0 mg/kg/injection, schedule: Q07DX002 (ip), vehicle: suspension in saline): 70 % of control
- T/C (dose: 8.0 mg/kg/injection, schedule: Q07DX002 (ip), vehicle: suspension in saline): 37 % of control

Compound: CNc1cccnc1/C=N/NC(N)=S
- T/C (dose: 25.0 mg/kg/injection, schedule: Q07DX002 (ip), vehicle: saline with Tween-80): 119 % of control
- T/C (dose: 50.0 mg/kg/injection, schedule: Q07DX002 (ip), vehicle: saline with Tween-80): 95 % of control
- T/C (dose: 200.0 mg/kg/injection, schedule: Q07DX002 (ip), vehicle: saline with Tween-80): 45 % of control and 66 % of control
- T/C (dose: 400.0 mg/kg/injection, schedule: Q07DX002 (ip), vehicle: saline with Tween-80): 32 % of control and 33 % of control

Compound: O=C1c2ccccc2C(=O)c2c3c(cc(NCCNCCO)c21)N(CCO)CCN3
- T/C (dose: 100.0 mg/kg/injection, schedule: Q07DX002 (ip), vehicle: DMSO): 96 % of control
- T/C (dose: 200.0 mg/kg/injection, schedule: Q07DX002 (ip), vehicle: DMSO): 105 % of control
- T/C (dose: 400.0 mg/kg/injection, schedule: Q07DX002 (ip), vehicle: DMSO): 117 % of control

Compound: COc1cccc2c1C(CO)N1C(C#N)C3CC(C(=O)O)C(C1C2)N3C (stereo not given)
- T/C (dose: 6.25 mg/kg/injection, schedule: Q07DX002 (ip), vehicle: saline): 71 % of control
- T/C (dose: 12.5 mg/kg/injection, schedule: Q07DX002 (ip), vehicle: saline): 45 % of control
- T/C [1]: 108 % of control
- T/C [2]: 80 % of control
- T/C [3]: 66 % of control

Compound: O=NN(CCCl)C(=O)NC1CCC(=O)NC1=O (stereo not given)
- T/C (dose: 2.0 mg/kg/injection, schedule: Q07DX003 (ip), vehicle: saline with Tween-80): 82 % of control
- T/C (dose: 4.0 mg/kg/injection, schedule: Q07DX003 (ip), vehicle: saline with Tween-80): 93 % of control
- T/C (dose: 8.0 mg/kg/injection, schedule: Q07DX003 (ip), vehicle: saline with Tween-80): 76 % of control
- T/C (dose: 13.0 mg/kg/injection, schedule: Q07DX003 (ip), vehicle: saline with Tween-80): 57 % of control
- T/C (dose: 20.0 mg/kg/injection, schedule: Q07DX003 (ip), vehicle: saline with Tween-80): 12 % of control

Compound: COc1c(O)c2c(c3cc(C(=O)N4CCc5c4c(O)c(OC)c4[nH]c(C(=O)N6CC7CC78C6=CC(=O)c6[nH]cc(C)c68)cc54)[nH]c13)CCN2C(N)=O (stereo not given)
- T/C (dose: 6.25 micrograms/kg/injection, schedule: Q07DX002 (ip), vehicle: DMSO): 122 % of control
- T/C (dose: 25.0 micrograms/kg/injection, schedule: Q07DX002 (ip), vehicle: DMSO): 109 % of control
- T/C (dose: 50.0 micrograms/kg/injection, schedule: Q07DX002 (ip), vehicle: DMSO): 89 % of control
- T/C (dose: 67.0 micrograms/kg/injection, schedule: Q07DX002 (ip), vehicle: other): 89 % of control
- T/C (dose: 100.0 micrograms/kg/injection, schedule: Q07DX002 (ip), vehicle: other): 37 % of control

Compound: CN(C)S(=O)(=O)CCNC(=O)N(CCCl)N=O
- T/C (dose: 5.4 mg/kg/injection, schedule: Q07DX002 (oral), vehicle: saline): 108 % of control
- T/C (dose: 7.5 mg/kg/injection, schedule: Q07DX002 (oral), vehicle: saline with Tween-80): 65 % of control
- T/C (dose: 9.0 mg/kg/injection, schedule: Q07DX002 (oral), vehicle: saline): 106 % of control
- T/C (dose: 15.0 mg/kg/injection, schedule: Q07DX002 (oral), vehicle: saline): 94 % of control
- T/C (dose: 25.0 mg/kg/injection, schedule: Q07DX002 (oral), vehicle: saline): 18 % of control

Compound: CCN(CC)CCNc1ccc(C)c2sc3ccccc3c(=O)c12
- T/C [1]: 47 % of control
- T/C [2]: 78 % of control
- T/C (dose: 50.0 mg/kg/injection, schedule: Q07DX002 (ip), vehicle: suspension in saline): 45 % of control
- T/C [3]: 105 % of control
- T/C (dose: 100.0 mg/kg/injection, schedule: Q07DX002 (ip), vehicle: suspension in saline): 24 % of control
- T/C (dose: 200.0 mg/kg/injection, schedule: Q07DX002 (ip), vehicle: saline): 16 % of control
